How the values were obtained:
Assay in all cases: NCI-60 screen (SRB)
Assay type in all cases: cell-based
[1] = system: MCF7; details: MCF7 (Breast)
Method: (§1) The human tumor cell lines of the cancer screening panel are grown in RPMI 1640 medium containing 5% fetal bovine serum and 2 mM L-glutamine. For a typical screening experiment, cells are inoculated into 96 well microtiter plates in 100 μL at plating densities ranging from 5,000 to 40,000 cells/well depending on the doubling time of individual cell lines. After cell inoculation, the microtiter plates are incubated at 37° C., 5% CO2, 95% air and 100% relative humidity for 24 h prior to addition of experimental drugs.
(§2) After 24 h, two plates of each cell line are fixed in situ with TCA, to represent a measurement of the cell population for each cell line at the time of drug addition (Tz). Experimental drug is solubilized in dimethyl sulfoxide at 400-fold the desired final maximum test concentration and stored frozen prior to use. At the time of drug addition, an aliquot of frozen concentrate is thawed and diluted to twice the desired final maximum test concentration with complete medium containing 50 μg/ml gentamicin. Additional four, 10-fold or ½ log serial dilutions are made to provide a total of five drug concentrations plus control. Aliquots of 100 μl of these different drug dilutions are added to the appropriate microtiter wells already containing 100 μl of medium, resulting in the required final drug concentrations.
(§3) Following drug addition, the plates are incubated for an additional 48 h at 37° C., 5% CO2, 95% air, and 100% relative humidity. For adherent cells, the assay is terminated by the addition of cold TCA. Cells are fixed in situ by the gentle addition of 50 μl of cold 50% (w/v) TCA (final concentration, 10% TCA) and incubated for 60 minutes at 4° C. The supernatant is discarded, and the plates are washed five times with tap water and air dried. Sulforhodamine B (SRB) solution (100 μl) at 0.4% (w/v) in 1% acetic acid is added to each well, and plates are incubated for 10 minutes at room temperature. After staining, unbound dye is removed by washing five times with 1% acetic acid and the plates are air dried. Bound stain is subsequently solubilized with 10 mM trizma base, and the absorbance is read on an automated plate reader at a wavelength of 515 nm. For suspension cells, the methodology is the same except that the assay is terminated by fixing settled cells at the bottom of the wells by gently adding 50 μl of 80% TCA (final concentration, 16% TCA). Using the seven absorbance measurements [time zero, (Tz), control growth, (C), and test growth in the presence of drug at the five concentration levels (Ti)], the percentage growth is calculated at each of the drug concentrations levels.
(§4) Percentage growth inhibition is calculated as: [(Ti−Tz)/(C−Tz)]×100 for concentrations for which Ti>/=Tz (1) [(Ti−Tz)/Tz]×100 for concentrations for which Ti<Tz (2)
(§5) Growth inhibition of 50% (GI50) is calculated from [(Ti−Tz)/(C−Tz)]×100=50 (3)
(§6) which is the drug concentration resulting in a 50% reduction in the net protein increase (as measured by SRB staining) in control cells during the drug incubation.
(§7) The drug concentration resulting in total growth inhibition (TGI) is calculated from Ti=Tz (4)
(§8) The LC50 (concentration of drug resulting in a 50% reduction in the measured protein at the end of the drug treatment as compared to that at the beginning) indicating a net loss of cells following treatment is calculated from [(Ti−Tz)/Tz]×100=−50 (5)
(§9) Values are calculated for each of these three parameters if the level of activity is reached; however, if the effect is not reached or is exceeded, the value for that parameter is expressed as greater or less than the maximum or minimum concentration tested.

[2] = system: TK-10; details: TK-10 (Renal)
Method: as §1, §2, §3, §4, §5, §6, §7, §8, §9

[3] = system: SN12C; details: SN12C (Renal)
Method: as §1, §2, §3, §4, §5, §6, §7, §8, §9

[4] = system: MDA-MB-435; details: MDA-MB-435 (Melanoma)
Method: as §1, §2, §3, §4, §5, §6, §7, §8, §9

[5] = system: HCC-2998; details: HCC-2998 (Colon)
Method: as §1, §2, §3, §4, §5, §6, §7, §8, §9

[6] = system: SNB-75; details: SNB-75 (CNS)
Method: as §1, §2, §3, §4, §5, §6, §7, §8, §9

[7] = system: MOLT-4; details: MOLT-4 (Leukemia)
Method: as §1, §2, §3, §4, §5, §6, §7, §8, §9

[8] = system: U251; details: U251 (CNS)
Method: as §1, §2, §3, §4, §5, §6, §7, §8, §9

[9] = system: NCI-H460; details: NCI-H460 (Non-Small Cell Lung)
Method: as §1, §2, §3, §4, §5, §6, §7, §8, §9

[10] = system: OVCAR-5; details: OVCAR-5 (Ovarian)
Method: as §1, §2, §3, §4, §5, §6, §7, §8, §9

[11] = system: MALME-3M; details: MALME-3M (Melanoma)
Method: as §1, §2, §3, §4, §5, §6, §7, §8, §9

[12] = system: 786-0; details: 786-0 (Renal)
Method: as §1, §2, §3, §4, §5, §6, §7, §8, §9

[13] = system: SF-539; details: SF-539 (CNS)
Method: as §1, §2, §3, §4, §5, §6, §7, §8, §9

[14] = system: NCI-H23; details: NCI-H23 (Non-Small Cell Lung)
Method: as §1, §2, §3, §4, §5, §6, §7, §8, §9

[15] = system: HT29; details: HT29 (Colon)
Method: as §1, §2, §3, §4, §5, §6, §7, §8, §9

[16] = system: HOP-62; details: HOP-62 (Non-Small Cell Lung)
Method: as §1, §2, §3, §4, §5, §6, §7, §8, §9

[17] = system: SNB-19; details: SNB-19 (CNS)
Method: as §1, §2, §3, §4, §5, §6, §7, §8, §9

[18] = Homo sapiens, read-out: LC50 (the source's name)

CC(C)(C)NC1CCN(c2cc(-c3ccc(Cl)cc3)nc3ccccc23)CC1.Cl.Cl [XII-4, 2-(4-chloro-phenyl)-4-(4-N-tert-butylamino-piperidin-1-yl)quinoline dihydrochloride] was tested, and the “Growth percent at 10 μM” value [1] was “++ (cell growth 40 > % < 60)”, the “Growth percent at 10 μM” value [2] was “− (cell growth % > 80)” and the “Growth percent at 10 μM” value [3] was “++ (cell growth 40 > % < 60)”. For the same molecule, the “Growth percent at 10 μM” value [4] was “++++ (cell growth 0 > % < 20)”, the “Growth percent at 10 μM” value [5] was “++++ (cell growth 0 > % < 20)” and the “Growth percent at 10 μM” value [6] was “++ (cell growth 40 > % < 60)”. For the same molecule, the “Growth percent at 10 μM” value [7] was “++ (cell growth 40 > % < 60)”, the “Growth percent at 10 μM” value [8] was “++ (cell growth 40 > % < 60)” and the “Growth percent at 10 μM” value [9] was “++ (cell growth 40 > % < 60)”. For the same molecule, the “Growth percent at 10 μM” value [10] was “++ (cell growth 40 > % < 60)”, the “Growth percent at 10 μM” value [11] was “××× (cell growth −40 < % > −60)” and the “Growth percent at 10 μM” value [12] was “++ (cell growth 40 > % < 60)”. The “Growth percent at 10 μM” value [13] was “++ (cell growth 40 > % < 60)”, the “Growth percent at 10 μM” value [14] was “− (cell growth % > 80)” and the “Growth percent at 10 μM” value [15] was “× (cell growth 0 < % > −20)”. The “Growth percent at 10 μM” value [16] was “+ (cell growth 60 > % < 80)” and the “Growth percent at 10 μM” value [17] was “− (cell growth % > 80)”.
CCN(CC)C1CCN(C(C)c2cc(-c3ccccc3)nc3ccccc23)CC1.Cl.Cl (stereo not shown) [XIX-3, 2-phenyl-4-{1-[4-(N,N-diethylamino)piperidin-1-yl]-eth-1-yl}quinoline dihydrochloride] was tested, and the GI50 ([1]; Homo sapiens) was 8 µM, the LC50 (50% lethal concentration) ([1]; Homo sapiens) was 56 µM and the TGI [1] was 22 µM. For the same molecule, the “Growth percent at 10 μM” value [1] was “++ (cell growth 40 > % < 60)”, the GI50 ([2]; Homo sapiens) was 13 µM and the LC50 (concentration causing 50% net cell kill) ([2]; Homo sapiens) was 26 µM. The TGI [2] was 26 µM, the “Growth percent at 10 μM” value [2] was “− (cell growth % > 80)” and the GI50 ([3]; Homo sapiens) was 12 µM. For the same molecule, the LC50 (concentration giving 50% net cell kill) ([3]; Homo sapiens) was 26 µM, the TGI [3] was 26 µM and the “Growth percent at 10 μM” value [3] was “+ (cell growth 60 > % < 80)”. For the same molecule, the GI50 ([4]; Homo sapiens) was 2 µM, the CC50 [4, 18] was 14 µM and the TGI [4] was 5 µM. The “Growth percent at 10 μM” value [4] was “++++ (cell growth % < 20)”, the TGI [5] was 13 µM and the “Growth percent at 10 μM” value [5] was “++ (cell growth 40 > % < 60)”. For the same molecule, the GI50 ([5]; Homo sapiens) was 4 µM, the CC50 [5, 18] was 44 µM and the GI50 ([6]; Homo sapiens) was 12 µM. For the same molecule, the CC50 [6, 18] was 55 µM, the TGI [6] was 26 µM and the “Growth percent at 10 μM” value [6] was “+++ (cell growth 20 > % < 40)”. It also gave a GI50 ([7]; Homo sapiens) of 4 µM, a CC50 [7, 18] of 49 µM and a TGI [7] of 15 µM. The “Growth percent at 10 μM” value [7] was “++++ (cell growth % < 20)”, the GI50 ([8]; Homo sapiens, U-251) was 6 µM and the CC50 ([8]; Homo sapiens, U-251, read-out: LC50 (the source's name)) was 49 µM. For the same molecule, the TGI [8] was 20 µM, the “Growth percent at 10 μM” value [8] was “+++ (cell growth 20 > % < 40)” and the GI50 ([9]; Homo sapiens) was 7 µM. The CC50 [9, 18] was 54 µM, the TGI [9] was 22 µM and the “Growth percent at 10 μM” value [9] was “+ (cell growth 60 > % < 80)”. For the same molecule, the GI50 ([10]; Homo sapiens) was 13 µM, the CC50 [10, 18] was 58 µM and the TGI [10] was 28 µM. For the same molecule, the “Growth percent at 10 μM” value [10] was “+ (cell growth 60 > % < 80)”, the GI50 ([11]; Homo sapiens) was 2 µM and the CC50 [11, 18] was 7 µM. The TGI [11] was 4 µM, the “Growth percent at 10 μM” value [11] was “×× (cell growth −20 > % < −40)” and the TGI [12] was 23 µM. The “Growth percent at 10 μM” value [12] was “++ (cell growth 40 > % < 60)”, the GI50 ([12]; Homo sapiens) was 8 µM and the CC50 [12, 18] was 54 µM. It also gave a GI50 ([13]; Homo sapiens) of 11 µM, a CC50 [13, 18] of 50 µM and a TGI [13] of 23 µM. For the same molecule, the “Growth percent at 10 μM” value [13] was “++ (cell growth 40 > % < 60)”, the GI50 ([14]; Homo sapiens) was over 100 µM and the CC50 [14, 18] was over 100 µM. The TGI [14] was over 100 µM, the “Growth percent at 10 μM” value [14] was “− (cell growth % > 80)” and the TGI [15] was 7 µM. For the same molecule, the “Growth percent at 10 μM” value [15] was “++++ (cell growth % < 20)”, the GI50 ([15]; Homo sapiens, HT-29) was 2 µM and the CC50 ([15]; Homo sapiens, HT-29, read-out: LC50 (the source's name)) was 32 µM. For the same molecule, the TGI [16] was 22 µM, the “Growth percent at 10 μM” value [16] was “− (cell growth % > 80)” and the GI50 ([16]; Homo sapiens) was 9 µM. The CC50 [16, 18] was 52 µM, the GI50 ([17]; Homo sapiens) was 13 µM and the CC50 [17, 18] was 59 µM. The TGI [17] was 28 µM and the “Growth percent at 10 μM” value [17] was “− (cell growth % > 80)”.

Source: patent US10179770B2, “Quinolines derivatives as novel anticancer agents” (GENOSCIENCE PHARMA, priority 2013, dated 2019)
